Data: article PMC4599284, “Redox effects and cytotoxic profiles of MJ25 and auranofin towards malignant melanoma cells” (Oncotarget, 2015)

Legend:
[1] = biological target: T1, thioredoxin reductase 1 (TrxR1) (Rattus norvegicus, UniProt O89049); assay: NADPH-dependent DTNB reduction assay with purified enzyme; irreversibility tested by desalting; type: biochemical
T1 construct: gene Txnrd1; recombinant selenocysteine-containing rat TrxR1
T1 sequence (O89049 1-499): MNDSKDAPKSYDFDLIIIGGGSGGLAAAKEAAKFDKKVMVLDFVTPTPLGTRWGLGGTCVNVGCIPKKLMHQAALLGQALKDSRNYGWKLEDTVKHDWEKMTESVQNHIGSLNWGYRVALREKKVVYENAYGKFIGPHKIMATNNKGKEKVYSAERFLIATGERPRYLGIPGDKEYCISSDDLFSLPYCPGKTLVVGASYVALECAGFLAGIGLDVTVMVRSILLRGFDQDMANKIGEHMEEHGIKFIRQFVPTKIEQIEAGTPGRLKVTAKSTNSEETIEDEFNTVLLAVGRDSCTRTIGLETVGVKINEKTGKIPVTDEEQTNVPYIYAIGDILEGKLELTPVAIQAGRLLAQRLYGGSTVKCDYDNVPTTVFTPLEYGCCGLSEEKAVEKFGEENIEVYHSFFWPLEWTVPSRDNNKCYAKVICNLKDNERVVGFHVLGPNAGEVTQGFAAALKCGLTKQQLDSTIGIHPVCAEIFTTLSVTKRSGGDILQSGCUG

[2] = biological target: T1, thioredoxin reductase 1 (TrxR1); assay: NADPH-dependent juglone reduction by purified enzyme, NADPH consumption at […] nm; type: biochemical

Compound | NADPH-dependent DTNB reduction assay with purified enzyme; irreversibility teste [1] | NADPH-dependent juglone reduction by purified enzyme, NADPH consumption at 340 n [2]
CC[P](CC)(CC)=[Au][S][C@@H]1O[C@H](COC(C)=O)[C@@H](OC(C)=O)[C@H](OC(C)=O)[C@H]1OC(C)=O [auranofin] | Both MJ25 and auranofin were found to inhibit TrxR1 irreversibly. | 
O=S(=O)(CCSc1nc2ccccc2o1)c1nc2ccccc2s1 [MJ25, 2-{[2-(1,3-benzothiazol-2-ylsulfonyl)ethyl]thio}-1,3-benzoxazole] | we also confirmed that repurchased MJ25 inhibited recombinant TrxR1 (Figure 4a) | 
O=C1C=CC(=O)c2c(O)cccc21 [juglone, 5-hydroxy-1,4-naphthoquinone] |  | using juglone as a Sec-independent substrate and the DTNB assay as a Sec-dependent activity control
